Legend:
[1] = tested on: TNFa; test: LPS-induced TNFa secretion in primary human PBMC-derived macrophages (ELISA); format: cell-based; conditions: for effect on LPS-induced TNFa secretion: in words; for TNFa Measurements Mean (baseline subtracted): LPS
Description: Unpurified buffy coats (Research Blood Components) were carefully poured into 50 mL centrifuge tubes and diluted with room temperature Dulbecco's Phosphate Buffered Saline (dPBS) with Calcium and Magnesium (Gibco). Diluted buffy coats were further divided into four total 50 mL centrifuge tubes at 20 mL per tube. Lymphocyte Separation Medium (Corning) was carefully pipetted to the bottom of each centrifuge tube. Mixtures were centrifuged at 850× g for 32 minutes at 20° C. with 0 deceleration and acceleration.
The PBMC layer was separated from other components after centrifugation and added to new 50 mL centrifuge tube containing 25 mL dPBS. Total volume was brought up to 50 mL with dPBS and centrifuged at 600× g for 10 minutes at 20° C. with acceleration of 9, deceleration of 5. Supernatant was carefully removed from cell pellets. The cell pellets were resuspended using 10 mL dPBS. Total volume was then brought up to 50 mL using dPBS and centrifuged at 450× g for 5 min at 20° C. with acceleration of 9, deceleration of 9. The supernatant removal and cell pellet resuspension was repeated again.
The supernatant was then carefully removed from cell pellets. Cell pellets were resuspended in 10 mL dPBS without calcium or magnesium and filtered through a 70 uM cell strainer. The total PBMC number was determined using a Cellometer K2 automated cell counter. A total of 5E6 cells were saved for flow cytometric analysis. Remaining cells were centrifuged at 490× g for 5 minutes at 20° C. with acceleration of 9, deceleration of 9.
CD14+ cells were selected using EasySep™ Human CD14 Positive Selection Kit II ([…] Technologies). Cells were resuspended in cold EasySep™ Buffer ([…] Technologies) at 1×10^8 cells/mL. A total of 100 uL/mL EasySep™ Human CD14 Positive Selection Cocktail II was added to the cell suspension, mixed, and incubated at room temperature for 10 minutes. A total of 100 uL/mL RapidSpheres were added to the mixture and incubated at room temperature for 3 minutes after mixing, then RoboSep buffer was added to bring up the total volume to 10 mL. The mixture in a 15 mL tube was placed in magnet and incubated at room temperature for 3 minutes. Supernatant was discarded and 10 mL fresh EasySep™ buffer was added to 15 mL tube. The addition of RoboSep buffer, mixing, and discarding of supernatant was repeated two more times.
Negative and positive fractions were centrifuged at 490× g for 5 minutes at 20° C. with acceleration of 9, deceleration of 9, and resuspended in DMEM (Gibco) and 10% Heat Inactivated Fetal Bovine Serum (Atlanta Bio) and Penicillin/Streptomycin. Cells were counted and centrifuged again at […] for 5 minutes at 20° C. with acceleration of 9, deceleration of 9. After centrifugation, cell were resuspended in DMEM (Gibco) and 10% Heat Inactivated Fetal Bovine Serum (Atlanta Bio) and Penicillin/Streptomycin containing 500 U/mL […] and plated at 1-2×10^6 cells/mL on 10 cm tissue culture plates. Cells were kept in 37° C., 5% CO2 in between feedings/harvest.
Cells were fed every 3-4 days by removing media and unattached cells, centrifuging at 490× g for 5 minutes at 20 C with acceleration of 9, deceleration of 9, and resuspending in fresh DMEM (Gibco) and 10% Heat Inactivated Fetal Bovine Serum (Atlanta Bio) and Penicillin/Streptomycin containing GM-CSF. Resuspended cells were seeded back onto 10 cm tissue culture plates and incubated at 37° C., 5% CO2. Differentiated macrophages were used for subsequent experiments.
Primary human PMBC derived macrophages were seeded on day 0 at 3.0E4 cells per well in 96-well microplates (ThermoFisher) in Dulbecco's Modified Eagle Medium (DMEM) (Gibco) supplemented with penicillin-streptomycin (Hyclone) and 10% heat inactivated fetal bovine serum (HI-FBS) (Atlanta Bio) and incubated overnight at 37° C., 5% CO2. On day 1, cells were washed once with 150 uL per well DPBS (Gibco) and treated with 75 uL of: • a. […]

[2] = Plasma pharmacokinetics after oral gavage in male Sprague-Dawley rats; format: in vivo; design: AUC(0-t): concentration or dose not given beside the values; conditions: rat, plasma, Mean, oral gavage of RCitNacQCarLHKVS, male Sprague-Dawley rats; for AUC(0-t): read-out: AUC0-5 h; for Cmax: read-out: Cmax; for Tmax: read-out: Tmax
Description: A pharmacokinetic (PK) analysis was performed on plasma concentrations of various combinations of amino acid compounds administered by oral gavage to male Sprague-Dawley rats. Four animals were dosed with RCitNacQCarLHKVS, a test article comprising ten amino acid components: arginine, citrulline, N-acetylcysteine, glutamine, carnitine, leucine, histidine, lysine, valine, and serine (Table 19). Animals were fasted for 2 hours prior to dose administration. Plasma samples were taken immediately pre-dose and 0.5, 1, 2, 3, 4, and 5 hours post-dose.
Bioanalysis of collected plasma samples for amino acid content was performed at Axcella Health using an LC-MS method (Section 2.1). Bioanalytical data were analyzed using noncompartmental analysis with Phoenix® WinNonLin® (v8.1).
An LC/MS method utilizing HILIC chromatography and high-resolution mass spectrometry was used to quantify amino acids in rat plasma. The samples were prepared by protein precipitation and spiked with stable-labeled amino acid internal standard for each analyte. […] QCs, spiked into rat plasma, were utilized to assess the accuracy of the method.
PK parameters of test article components were determined from individual rat plasma concentration-time data by employing a noncompartmental approach using Phoenix WinNonlin® (Version 8.1) software. Nominal times were used to calculate the toxicokinetic parameters. […] This program analyzed data using the standard methods described by Gibaldi and Perrier (see M. Gibaldi and D. Perrier, Pharmacokinetics, 2nd edition, New York: Marcel-Dekker, Inc.; 1982.).

Structure (SMILES) | effect on LPS-induced TNFa secretion ([1]; Donor 1) | effect on LPS-induced TNFa secretion ([1]; Donor 2) | effect on LPS-induced TNFa secretion ([1]; Donor 3) | AUC(0-t) [2] [µM·h] | Cmax [2] [µM] | Tmax [2] [min] | TNFa Measurements Mean (baseline subtracted) ([1]; Donor 1, Conc. 109 μM (baseline)) | TNFa Measurements Mean (baseline subtracted) ([1]; Donor 1, Conc. 1088 μM) | TNFa Measurements Mean (baseline subtracted) ([1]; Donor 1, Conc. 2720 μM) | TNFa Measurements Mean (baseline subtracted) ([1]; Donor 1, Conc. 5440 μM) | TNFa Measurements Mean (baseline subtracted) ([1]; Donor 2, Conc. 109 μM (baseline)) | TNFa Measurements Mean (baseline subtracted) ([1]; Donor 2, Conc. 1088 μM) | TNFa Measurements Mean (baseline subtracted) ([1]; Donor 2, Conc. 2720 μM) | TNFa Measurements Mean (baseline subtracted) ([1]; Donor 2, Conc. 5440 μM) | TNFa Measurements Mean (baseline subtracted) ([1]; Donor 3, Conc. 109 μM (baseline)) | TNFa Measurements Mean (baseline subtracted) ([1]; Donor 3, Conc. 1088 μM) | TNFa Measurements Mean (baseline subtracted) ([1]; Donor 3, Conc. 2720 μM) | TNFa Measurements Mean (baseline subtracted) ([1]; Donor 3, Conc. 5440 μM)
CC(=O)N[C@@H](CS)C(=O)O [N-Acetyl Cysteine, N-acetylcysteine] | significantly reduced | significantly reduced | significantly reduced | – | – | – | – | – | – | – | – | – | – | – | – | – | – | –
NC(=O)CC[C@H](N)C(=O)O [Glutamine] | – | increased | increased | 2370 | 605 | 30 | – | – | – | – | – | – | – | – | – | – | – | –
N=C(N)NCCC[C@H](N)C(=O)O [Arginine] | – | – | – | 2210 | 565 | 82.8 | 0 | −24.33 | 5.12 | 62.06 | 1.42E−14 | −12.7222 | −3.763 | −0.5738 | 3.55E−15 | 3.131 | −0.9669 | −1.767

From US11058654B2, “Compositions and methods for the treatment of hemoglobinopathies and thalassemias” (AXCELLA HEALTH INC., priority 2018, dated 2021)
